Laboratory results from ChEMBL document CHEMBL1777670, “Novel 12-membered non-antibiotic macrolides from erythromycin A; EM900 series as novel leads for anti-inflammatory and/or immunomodulatory agents” (Bioorg Med Chem Lett, 2011).
pEC50: −log10 of the molar value. Values after ≈ are worked out from the molar mass of the structure shown.

Legend:
THP-1 [1] = experiment: Cytotoxicity against human THP1 cells using cell count reagent SF; type: cell-based
THP-1 [2] = experiment: Immunomodulatory activity in human THP1 cells assessed as differentiation of monocyte to macrophage after 4 days by MTT assay; type: functional; details: THP-1, 96 h, read-out: ED50 (the source's name)
Staphylococcus aureus [3] = experiment: Antimicrobial activity against Staphylococcus aureus FDA209P by CLSI method; type: functional
Staphylococcus aureus [4] = experiment: Antimicrobial activity against Staphylococcus aureus Smith by CLSI method; type: functional
Staphylococcus aureus [5] = experiment: Antimicrobial activity against Staphylococcus aureus 8325 (pEP2104) by CLSI method; type: functional
[6] = test system: Staphylococcus epidermidis; experiment: Antimicrobial activity against Staphylococcus epidermidis […] by CLSI method; type: functional
Micrococcus luteus [7] = experiment: Antimicrobial activity against Micrococcus luteus ATCC 9341 by CLSI method; type: functional
Micrococcus luteus [8] = experiment: Antimicrobial activity against Micrococcus luteus ATCC 21212 by CLSI method; type: functional
Escherichia coli = experiment: Antimicrobial activity against Escherichia coli NIHJ JC-2 by CLSI method; type: functional
Klebsiella pneumoniae = experiment: Antimicrobial activity against Klebsiella pneumoniae NCTN9632 by CLSI method; type: functional
Serratia marcescens = experiment: Antimicrobial activity against Serratia marcescens IFO12648 by CLSI method; type: functional
Klebsiella aerogenes = experiment: Antimicrobial activity against Enterobacter aerogenes NCTC10006 by CLSI method; type: functional
[9] = test system: Acinetobacter calcoaceticus; experiment: Antimicrobial activity against Acinetobacter calcoaceticus IFO2552 by CLSI method; type: functional

CO[C@]1(C)C[C@H](O[C@H]2[C@H](C)[C@@H](O[C@@H]3O[C@H](C)C[C@H](N(C)C)[C@H]3O)[C@@]3(C)C[C@@H](C)[C@H](O3)[C@H](C)[C@H](/C(C)=N/O)OC(=O)[C@@H]2C)O[C@@H](C)[C@@H]1O
Activity (THP-1 [1]): > 100 µM | pEC50 (THP-1 [2]): 4.91

CC[C@H]1OC(=O)O[C@@]1(C)[C@@H]1OC(=O)[C@H](C)C(=O)[C@H](C)[C@@H](O[C@@H]2O[C@H](C)C[C@H](N(C)C)[C@H]2OC(C)=O)[C@@]2(C)C[C@@H](C)[C@H](O2)[C@@H]1C
Activity (THP-1 [1]): > 100 µM | pEC50 (THP-1 [2]): 4.55

CC[C@H]1OC(=O)O[C@@]1(C)[C@@H]1OC(=O)[C@H](C)C(=O)[C@H](C)[C@@H](O[C@@H]2O[C@H](C)C[C@H](N(C)C)[C@H]2O)[C@@]2(C)C[C@@H](C)[C@H](O2)[C@@H]1C
Activity (THP-1 [1]): > 100 µM | pEC50 (THP-1 [2]): 4.58

CO[C@]1(C)C[C@H](O[C@H]2[C@H](C)[C@@H](O[C@@H]3O[C@H](C)C[C@H](N(C)C)[C@H]3O)[C@@]3(C)C[C@@H](C)[C@H](O3)[C@H](C)[C@H](C(C)=O)OC(=O)[C@@H]2C)O[C@@H](C)[C@@H]1O
Activity (THP-1 [1]): 100 µM | pEC50 (THP-1 [2]): 4.91

CC[C@H]1OC(=O)[C@H](C)[C@@H](O[C@H]2C[C@@](C)(OC)[C@@H](O)[C@H](C)O2)[C@H](C)[C@@H](O[C@@H]2O[C@H](C)C[C@H](N(C)C)[C@H]2O)[C@](C)(O)C[C@@H](C)C(=O)[C@H](C)[C@@H](O)[C@]1(C)O [ERYTHROMYCIN]
MIC (Staphylococcus aureus [3]): ≤ 0.5 µg/mL | MIC (Staphylococcus aureus [4]): ≤ 0.5 µg/mL | MIC (Staphylococcus aureus [5]): 64 µg/mL (≈ 87.2 µM) | MIC [6]: ≤ 0.5 µg/mL | MIC (Micrococcus luteus [7]): ≤ 0.5 µg/mL | MIC (Micrococcus luteus [8]): 1 µg/mL (≈ 1.36 µM) | MIC (Escherichia coli): 64 µg/mL (≈ 87.2 µM) | MIC (Klebsiella pneumoniae): 32 µg/mL (≈ 43.6 µM) | MIC (Serratia marcescens): 128 µg/mL (≈ 174 µM) | MIC (Klebsiella aerogenes): 128 µg/mL (≈ 174 µM) | MIC [9]: 4 µg/mL (≈ 5.45 µM)

CC[C@@H](O)[C@@](C)(O)[C@@H]1OC(=O)[C@H](C)[C@@H](O[C@H]2C[C@@](C)(OC)[C@@H](O)[C@H](C)O2)[C@H](C)[C@@H](O[C@@H]2O[C@H](C)C[C@H](N(C)C)[C@H]2O)[C@@]2(C)C[C@@H](C)[C@H](O2)[C@@H]1C
Activity (THP-1 [1]): 100 µM | MIC (Staphylococcus aureus [3]): > 128 µg/mL | pEC50 (THP-1 [2]): 4.77 | MIC (Staphylococcus aureus [4]): > 128 µg/mL | MIC (Staphylococcus aureus [5]): > 128 µg/mL | MIC [6]: > 128 µg/mL | MIC (Micrococcus luteus [7]): 128 µg/mL (≈ 178 µM) | MIC (Micrococcus luteus [8]): > 128 µg/mL | MIC (Escherichia coli): > 128 µg/mL | MIC (Klebsiella pneumoniae): > 128 µg/mL | MIC (Serratia marcescens): > 128 µg/mL | MIC (Klebsiella aerogenes): > 128 µg/mL | MIC [9]: > 128 µg/mL

CC[C@@H](O)[C@@](C)(O)[C@@H]1OC(=O)[C@H](C)[C@@H](O[C@H]2C[C@@](C)(OC)[C@@H](O)[C@H](C)O2)[C@H](C)[C@@H](O[C@@H]2O[C@H](C)C[C@H](N(C)C)[C@H]2OC(C)=O)[C@@]2(C)C[C@@H](C)[C@H](O2)[C@@H]1C
Activity (THP-1 [1]): 100 µM | pEC50 (THP-1 [2]): 4.79

CC[C@@H]1O[C@@]1(C)[C@@H]1OC(=O)[C@H](C)[C@@H](O[C@H]2C[C@@](C)(OC)[C@@H](O)[C@H](C)O2)[C@H](C)[C@@H](O[C@@H]2O[C@H](C)C[C@H](N(C)C)[C@H]2O)[C@@]2(C)C[C@@H](C)[C@H](O2)[C@@H]1C
Activity (THP-1 [1]): 100 µM | pEC50 (THP-1 [2]): 4.99

CC[C@@H](O)[C@@](C)(O)[C@@H]1OC(=O)[C@H](C)[C@@H](O)[C@H](C)[C@@H](O[C@@H]2O[C@H](C)C[C@H](N(C)C)[C@H]2OC(C)=O)[C@@]2(C)C[C@@H](C)[C@H](O2)[C@@H]1C
Activity (THP-1 [1]): > 100 µM | pEC50 (THP-1 [2]): < 4.00

CC[C@H]1OC(=O)O[C@@]1(C)[C@@H]1OC(=O)[C@H](C)[C@@H](O)[C@H](C)[C@@H](O[C@@H]2O[C@H](C)C[C@H](N(C)C)[C@H]2OC(C)=O)[C@@]2(C)C[C@@H](C)[C@H](O2)[C@@H]1C
Activity (THP-1 [1]): > 100 µM | pEC50 (THP-1 [2]): 4.25

CC[C@@H](OC(C)=O)[C@@](C)(O)[C@@H]1OC(=O)[C@H](C)[C@@H](O[C@H]2C[C@@](C)(OC)[C@@H](O)[C@H](C)O2)[C@H](C)[C@@H](O[C@@H]2O[C@H](C)C[C@H](N(C)C)[C@H]2O)[C@@]2(C)C[C@@H](C)[C@H](O2)[C@@H]1C
Activity (THP-1 [1]): 100 µM | pEC50 (THP-1 [2]): 5.11
